# Reference: patent US9073903B2, “Imidazole-2,4-dione inhibitors of casein kinase 1” (Jasco Pharmaceuticals, LLC, priority 2010, dated 2015)
# Like-named read-outs stand apart in the source and are kept apart here.
# Experiments:
# Type in all cases: cell-based
# [1] = tested on: PC-3 cells; test: Inhibition of PC-3 cells (MTS cell proliferation); conditions: for OD value 1 / OD value 2: 490 nm; for OD value 1 / OD value 2 / inhibition at 0.4 µM / inhibition at 0.8 µM / inhibition at 1.6 µM / inhibition at 3.2 µM / inhibition at 6.25 µM / inhibition at 12.5 µM / inhibition at 25 µM / inhibition at 50 µM / inhibition at 100 µM: 72 h; for inhibition at 0.4 µM / inhibition at 0.8 µM / inhibition at 1.6 µM / inhibition at 3.2 µM / inhibition at 6.25 µM / inhibition at 12.5 µM / inhibition at 25 µM / inhibition at 50 µM / inhibition at 100 µM / IC50: Homo sapiens, PC-3
# Protocol: Inhibition of PC-3 Cells: Cells: PC-3 cells, ATCC Passage unknown, Mycoplasma free. Medium: DMEM Medium (GIBCO Cat #11995073) supplemented with 10% fetal bovine serum (Hyclone Cat #SH30396.03). Seeding: 3,000 cells/well (100 ul) into 96-wells plate, incubated overnight at 37° C. in a humidified, 5% CO2 atmosphere. Treatment: Test compounds and Gemcitabine were prepared in a serial dilution (1:2) by culture medium. Fifty microliters (50 uL) of serially diluted solutions were added into each well. The final concentrations of the positive control and test compounds were shown in the graphs. The cells were incubated for 72 hours after addition of the test compounds. MTS: 15 uL of MTS solution (Promega Cat #G5430) was added into each well and incubated with cells for 4 hours at 37° C. in a humidified, 5% CO2 atmosphere. Measurement: Absorbance at 490 nm was measured using MD Spectramax Plus384 spectrophotometer. The regression curves were calculated by the GraphPad Prism 5 using “log(inhibitor) vs response—variable slope”. Calculation: % of inhibition=(ODzero ctrl−OD compound)/ODzero ctrl*100.
# [2] = tested on: LNCaP; test: Inhibition of LNCaP cells (MTS cell proliferation); conditions: for OD value 1 / OD value 2: 490 nm; for OD value 1 / OD value 2 / inhibition at 0.4 µM / inhibition at 0.8 µM / inhibition at 1.6 µM / inhibition at 3.2 µM / inhibition at 6.25 µM / inhibition at 12.5 µM / inhibition at 25 µM / inhibition at 50 µM / inhibition at 100 µM: 72 h; for inhibition at 0.4 µM / inhibition at 0.8 µM / inhibition at 1.6 µM / inhibition at 3.2 µM / inhibition at 6.25 µM / inhibition at 12.5 µM / inhibition at 25 µM / inhibition at 50 µM / inhibition at 100 µM / IC50: Homo sapiens
# Protocol: Inhibition of LNCaP Cells Cells: LNCaP, ATCC Passage unknown, Mycoplasma free. Medium: RPMI-1640 Medium (GIBCO Cat #22400121) supplemented with 10% fetal bovine serum (Hyclone Cat #SH30396.03). Seeding: 3,000 cells/well (100 uL) into 96-wells plate, incubated overnight at 37° C. in a humidified, 5% CO2 atmosphere. Treatment: Test compounds and Gemcitabine were prepared in a serial dilution (1:2) by culture medium. Fifty microliters (50 uL) of serially diluted solutions were added into each well. The final concentrations of the positive control and test compounds were shown in the graphs. The cells were incubated for 72 hours after addition of the test compounds. MTS: 15 uL of MTS solution (Promega Cat #G5430) was added into each well and incubated with cells for 4 hours at 37° C. in a humidified, 5% CO2 atmosphere. Measurement: Absorbance at 490 nm was measured using MD Spectramax Plus384 spectrophotometer. The regression curves were calculated by the GraphPad Prism 5 using “log(inhibitor) vs response—variable slope”. Calculation: % of inhibition+(AVE zero ctrl−AVE compound)/AVE zero ctrl*100.
# [3] = tested on: Jurkat; test: Cell proliferation study Jurkat
smiles,measurement,setting,value
Nc1ccn([C@@H]2O[C@H](CO)[C@@H](O)C2(F)F)c(=O)n1 [Gemcitabine],OD value 1,"[1]; 0.400 uM, replicate 1",0.884
same,OD value 2,"[1]; 0.400 uM, replicate 2",0.866
same,OD value 1,"[1]; 0.800 uM, replicate 1",0.860
same,OD value 2,"[1]; 0.800 uM, replicate 2",0.803
same,OD value 1,"[1]; 1.600 uM, replicate 1",0.794
same,OD value 2,"[1]; 1.600 uM, replicate 2",0.778
same,OD value 1,"[1]; 3.200 uM, replicate 1",0.726
same,OD value 2,"[1]; 3.200 uM, replicate 2",0.756
same,OD value 1,"[1]; 6.250 uM, replicate 1",0.686
same,OD value 2,"[1]; 6.250 uM, replicate 2",0.692
same,OD value 1,"[1]; 12.500 uM, replicate 1",0.617
same,OD value 2,"[1]; 12.500 uM, replicate 2",0.628
same,OD value 1,"[1]; 25.000 uM, replicate 1",0.572
same,OD value 2,"[1]; 25.000 uM, replicate 2",0.583
same,OD value 1,"[1]; 50.000 uM, replicate 1",0.458
same,OD value 2,"[1]; 50.000 uM, replicate 2",0.488
same,OD value 1,"[1]; 100.000 uM, replicate 1",0.246
same,OD value 2,"[1]; 100.000 uM, replicate 2",0.214
same,inhibition at 0.4 µM,"[1]; 0.400 uM, replicate 1, read-out: % of inhibition 1",2.1%
same,inhibition at 0.4 µM,"[1]; 0.400 uM, replicate 2, read-out: % of inhibition 2",1.92%
same,inhibition at 0.8 µM,"[1]; 0.800 uM, replicate 1, read-out: % of inhibition 1",4.8%
same,inhibition at 0.8 µM,"[1]; 0.800 uM, replicate 2, read-out: % of inhibition 2",9.05%
same,inhibition at 1.6 µM,"[1]; 1.600 uM, replicate 1, read-out: % of inhibition 1",12%
same,inhibition at 1.6 µM,"[1]; 1.600 uM, replicate 2, read-out: % of inhibition 2",11.9%
same,inhibition at 3.2 µM,"[1]; 3.200 uM, replicate 1, read-out: % of inhibition 1",19.7%
same,inhibition at 3.2 µM,"[1]; 3.200 uM, replicate 2, read-out: % of inhibition 2",14.3%
same,inhibition at 6.25 µM,"[1]; 6.250 uM, replicate 1, read-out: % of inhibition 1",24.1%
same,inhibition at 6.25 µM,"[1]; 6.250 uM, replicate 2, read-out: % of inhibition 2",21.7%
same,inhibition at 12.5 µM,"[1]; 12.500 uM, replicate 1, read-out: % of inhibition 1",31.7%
same,inhibition at 12.5 µM,"[1]; 12.500 uM, replicate 2, read-out: % of inhibition 2",28.9%
same,inhibition at 25 µM,"[1]; 25.000 uM, replicate 1, read-out: % of inhibition 1",36.7%
same,inhibition at 25 µM,"[1]; 25.000 uM, replicate 2, read-out: % of inhibition 2",34%
same,inhibition at 50 µM,"[1]; 50.000 uM, replicate 1, read-out: % of inhibition 1",49.3%
same,inhibition at 50 µM,"[1]; 50.000 uM, replicate 2, read-out: % of inhibition 2",44.5%
same,inhibition at 100 µM,"[1]; 100.000 uM, replicate 1, read-out: % of inhibition 1",72.8%
same,inhibition at 100 µM,"[1]; 100.000 uM, replicate 2, read-out: % of inhibition 2",75.8%
same,IC50,"[1]; Table 18, read-out: PC-3* 50% inhibition concentration",41300 nM
same,IC50,"[1]; Table 26, 72 hours, read-out: 50% viability conc.",41300 nM
same,OD value 1,"[2]; 0.400 uM, replicate 1",0.578
same,OD value 2,"[2]; 0.400 uM, replicate 2",0.662
same,OD value 1,"[2]; 0.800 uM, replicate 1",0.459
same,OD value 2,"[2]; 0.800 uM, replicate 2",0.434
same,OD value 1,"[2]; 1.600 uM, replicate 1",0.448
same,OD value 2,"[2]; 1.600 uM, replicate 2",0.472
same,OD value 1,"[2]; 3.200 uM, replicate 1",0.322
same,OD value 2,"[2]; 3.200 uM, replicate 2",0.337
same,OD value 1,"[2]; 6.250 uM, replicate 1",0.182
same,OD value 2,"[2]; 6.250 uM, replicate 2",0.190
same,OD value 1,"[2]; 12.500 uM, replicate 1",0.166
same,OD value 2,"[2]; 12.500 uM, replicate 2",0.173
same,OD value 1,"[2]; 25.000 uM, replicate 1",0.101
same,OD value 2,"[2]; 25.000 uM, replicate 2",0.177
same,OD value 1,"[2]; 50.000 uM, replicate 1",0.124
same,OD value 2,"[2]; 50.000 uM, replicate 2",0.202
same,OD value 1,"[2]; 100.000 uM, replicate 1",0.112
same,OD value 2,"[2]; 100.000 uM, replicate 2",0.197
same,inhibition at 0.4 µM,"[2]; LNCaP, 0.400 uM, replicate 1, read-out: % of inhibition 1",12.8%
same,inhibition at 0.4 µM,"[2]; LNCaP, 0.400 uM, replicate 2, read-out: % of inhibition 2",13.6%
same,inhibition at 0.8 µM,"[2]; LNCaP, 0.800 uM, replicate 1, read-out: % of inhibition 1",30.8%
same,inhibition at 0.8 µM,"[2]; LNCaP, 0.800 uM, replicate 2, read-out: % of inhibition 2",43.4%
same,inhibition at 1.6 µM,"[2]; LNCaP, 1.600 uM, replicate 1, read-out: % of inhibition 1",32.4%
same,inhibition at 1.6 µM,"[2]; LNCaP, 1.600 uM, replicate 2, read-out: % of inhibition 2",38.4%
same,inhibition at 3.2 µM,"[2]; LNCaP, 3.200 uM, replicate 1, read-out: % of inhibition 1",51.4%
same,inhibition at 3.2 µM,"[2]; LNCaP, 3.200 uM, replicate 2, read-out: % of inhibition 2",56%
same,inhibition at 6.25 µM,"[2]; LNCaP, 6.250 uM, replicate 1, read-out: % of inhibition 1",72.5%
same,inhibition at 6.25 µM,"[2]; LNCaP, 6.250 uM, replicate 2, read-out: % of inhibition 2",75.2%
same,inhibition at 12.5 µM,"[2]; LNCaP, 12.500 uM, replicate 1, read-out: % of inhibition 1",75%
same,inhibition at 12.5 µM,"[2]; LNCaP, 12.500 uM, replicate 2, read-out: % of inhibition 2",77.4%
same,inhibition at 25 µM,"[2]; LNCaP, 25.000 uM, replicate 1, read-out: % of inhibition 1",84.8%
same,inhibition at 25 µM,"[2]; LNCaP, 25.000 uM, replicate 2, read-out: % of inhibition 2",76.9%
same,inhibition at 50 µM,"[2]; LNCaP, 50.000 uM, replicate 1, read-out: % of inhibition 1",81.3%
same,inhibition at 50 µM,"[2]; LNCaP, 50.000 uM, replicate 2, read-out: % of inhibition 2",73.6%
same,inhibition at 100 µM,"[2]; LNCaP, 100.000 uM, replicate 1, read-out: % of inhibition 1",83.1%
same,inhibition at 100 µM,"[2]; LNCaP, 100.000 uM, replicate 2, read-out: % of inhibition 2",74.3%
same,IC50,"[2]; LNCaP, Table 18, read-out: LNCaP* 50% inhibition concentration",1970 nM
same,IC50,"[2]; Table 26, LNCaP, 72 hours, read-out: 50% viability conc.",1970 nM
same,IC50,"[2]; Table 26, LNCaP, 72 hours, read-out: IC50",2380 nM
same,Maximal inhibition %,"[2]; Table 26, LNCaP, 72 hours",78.69%
same,Jurkat‡ % at 10 μM,[3],3.2%
